Experimental data published in patent US8664226B2, “Compound having 3-heteroarylpyrimidin-4-(3H)-one structure and pharmaceutical preparation containing same” (Kowa Company, Ltd., priority 2009, dated 2014).

Biological target: T1, angiotensin II type 1 receptor (Oryctolagus cuniculus, UniProt P34976)
T1 construct: By using a specimen of isolated rabbit blood vessels; from tissue; host or cells: rabbit thoracic aorta ring (New Zealand White, male)
T1 sequence (P34976 1-359): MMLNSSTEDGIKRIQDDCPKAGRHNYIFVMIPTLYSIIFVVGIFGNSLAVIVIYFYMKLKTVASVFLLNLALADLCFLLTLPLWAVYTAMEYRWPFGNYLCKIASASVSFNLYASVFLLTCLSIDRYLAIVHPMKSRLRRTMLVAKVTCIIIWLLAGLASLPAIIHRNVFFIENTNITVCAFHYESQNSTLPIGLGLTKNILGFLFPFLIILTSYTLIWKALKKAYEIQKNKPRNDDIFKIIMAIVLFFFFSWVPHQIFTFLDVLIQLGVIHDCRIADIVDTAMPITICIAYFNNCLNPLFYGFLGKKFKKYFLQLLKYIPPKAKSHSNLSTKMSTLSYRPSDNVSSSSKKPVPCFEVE
Test: Angiotensin II antagonistic activity in isolated rabbit blood vessels
Settings: angiotensin II (10 nM)-induced contraction of rabbit thoracic aorta ring
Experimental: By using a specimen of isolated rabbit blood vessels, antagonistic activity of the compounds of the invention against angiotensin II type 1 receptor was estimated from a dose-response curve of angiotensin II-induced blood vessel contraction.
During the measurement, the inside temperature of the magnus bath was maintained at 37° C. and the bath was continuously ventilated with a sufficient amount of mixed gas (95% O2 and 5% CO2). The angiotensin II-induced contraction was converted into a relative value (%) that is based on the angiotensin II (10 nM)-induced contraction in the absence of the compounds of each example. From the concentration-response curve obtained therefrom, 50% inhibition concentration (IC50 value) was calculated by using SAS Preclinical Package Ver5.0 (trade name, manufactured by SAS institute Japan Co., Tokyo, Japan), which is a statistical analysis program.

| Structure (SMILES) | IC50 [nM] |
| --- | --- |
| CCCCc1nc(C)n(-c2ccccn2)c(=O)c1Cc1ccc(-c2ccccc2-c2nnn[nH]2)cc1 [Example 1, 5-{[2′-(1H-tetrazol-5-yl)biphenyl-4-yl]methyl}-6-butyl-2-methyl-3-(pyridin-2-yl)pyrimidin-4(3H)-one] | 2.1 |
| CCCCc1nc(C)n(-c2ncccc2C(F)(F)F)c(=O)c1Cc1ccc(-c2ccccc2-c2nnn[nH]2)cc1 [Example 9, 5-{[2′-(1H-tetrazol-5-yl)biphenyl-4-yl]methyl}-6-butyl-2-methyl-3-[3-(trifluoromethyl)pyridin-2-yl]pyrimidin-4(3H)-one] | 14 |
| CCCCc1nc(C)n(-c2cccc(C(F)(F)F)n2)c(=O)c1Cc1ccc(-c2ccccc2-c2nnn[nH]2)cc1 [Example 12, 5-{[2′-(1H-tetrazol-5-yl)biphenyl-4-yl]methyl}-6-butyl-2-methyl-3-[6-(trifluoromethyl)pyridin-2-yl]pyrimidin-4(3H)-one] | 230 |
| CCCCc1nc(C)n(-c2ccc([N+](=O)[O-])cn2)c(=O)c1Cc1ccc(-c2ccccc2-c2nnn[nH]2)cc1 [Example 14, 5-{[2′-(1H-tetrazol-5-yl)biphenyl-4-yl]methyl}-6-butyl-2-methyl-3-(5-nitropyridin-2-yl)pyrimidin-4 (3H)-one] | 546 |
| CCCCc1nc(C)n(-c2nc(Cl)cc(Cl)n2)c(=O)c1Cc1ccc(-c2ccccc2-c2nnn[nH]2)cc1 [Example 30, 5-{[2′-(1H-tetrazol-5-yl)biphenyl-4-yl]methyl}-6-butyl-3-(4,6-dichloropyrimidin-2-yl)-2-methylpyrimidin-4 (3H)-one] | 20 |
| CCCCc1nc(C)n(-c2ncc(OCc3nc(-c4ccccc4)oc3C)cn2)c(=O)c1Cc1ccc(-c2ccccc2-c2nnn[nH]2)cc1 [Example 31] | 338 |
| CCCCc1nc(C)n(-c2ncc(OCc3nc(-c4ccc(Br)o4)oc3C)cn2)c(=O)c1Cc1ccc(-c2ccccc2-c2nnn[nH]2)cc1 [Example 32, 5-{[2′-(1H-tetrazol-5-yl)biphenyl-4-yl]methyl}-3-{5-{[2-(5-bromofuran-2-yl)-5-methyloxazol-4-yl]methoxy}pyrimidin-2-yl}-6-butyl-2-methylpyrimidin-4 (3H)-one] | 428 |
| CCCCc1nc(C)n(-c2ncc(OCc3nc(-c4ccco4)oc3C)cn2)c(=O)c1Cc1ccc(-c2ccccc2-c2nnn[nH]2)cc1 [Example 33, 5-{[2′-(1H-tetrazol-5-yl)biphenyl-4-yl]methyl}-6-butyl-3-{5-{[2-(furan-2-yl)-5-methyloxazol-4-yl]methoxy}pyrimidin-2-yl}-2-methylpyrimidin-4 (3H)-one] | 956 |
| CCCCc1nc(C)n(-c2ncc(OCc3nc(-c4ccc5ccccc5c4)oc3C)cn2)c(=O)c1Cc1ccc(-c2ccccc2-c2nnn[nH]2)cc1 [Example 34, 5-{[2′-(1H-tetrazol-5-yl)biphenyl-4-yl]methyl}-6-butyl-2-methyl-3-{5-{[5-methyl-2-(naphthalen-2-yl)oxazol-4-yl]methoxy}pyrimidin-2-yl}-pyrimidin-4 (3H)-one] | 754 |
| CCCCc1nc(C)n(-c2ncc(OCCc3nc(-c4ccccc4)oc3C)cn2)c(=O)c1Cc1ccc(-c2ccccc2-c2nnn[nH]2)cc1 [Example 35, 5-{[2′-(1H-tetrazol-5-yl)biphenyl-4-yl]methyl}-6-butyl-2-methyl-3-{5-[2-(5-methyl-2-phenyloxazol-4-yl)ethoxy]pyrimidin-2-yl}pyrimidin-4 (3H)-one] | 347 |
| CCCCc1nc(C)n(-c2ncc(OC(Cc3ccccc3)C(=O)O)cn2)c(=O)c1Cc1ccc(-c2ccccc2-c2nnn[nH]2)cc1 (stereo not shown) [Example 43, 2-{2-{5-{[2′-(1H-tetrazol-5-yl)biphenyl-4-yl]methyl}-4-butyl-2-methyl-6-oxopyrimidin-1(6H)-yl}pyrimidin-5-yloxy}-3-phenylpropionic acid] | 5.5 |

Other lines, results leading:

| IC50 [nM] | Structure (SMILES) |
| --- | --- |
| 9.2 | CCCCc1nc(C)n(-c2ncccn2)c(=O)c1Cc1ccc(-c2ccccc2-c2nnn[nH]2)cc1 [Example 17, 5-{[2′-(1H-tetrazol-5-yl)biphenyl-4-yl]methyl}-6-butyl-2-methyl-3-(pyrimidin-2-yl)pyrimidin-4 (3H)-one] |
| 2.7 | CCCCc1nc(C)n(-c2ncc(OC)cn2)c(=O)c1Cc1ccc(-c2ccccc2-c2nnn[nH]2)cc1 [Example 18, 5-{[2′-(1H-tetrazol-5-yl)biphenyl-4-yl]methyl}-6-butyl-3-(5-methoxypyrimidin-2-yl)-2-methylpyrimidin-4 (3H)-one] |
| 6.3 | CCCCc1nc(C)n(-c2ncc(O)cn2)c(=O)c1Cc1ccc(-c2ccccc2-c2nnn[nH]2)cc1 [Example 20, 5-{[2′-(1H-tetrazol-5-yl)biphenyl-4-yl]methyl}-6-butyl-3-(5-hydroxypyrimidin-2-yl)-2-methylpyrimidin-4 (3H)-one] |
| 24 | CCCCc1nc(C)n(-c2ncc(OCCCO)cn2)c(=O)c1Cc1ccc(-c2ccccc2-c2nnn[nH]2)cc1 [Example 25, 5-{[2′-(1H-tetrazol-5-yl)biphenyl-4-yl]methyl}-6-butyl-3-[5-(3-hydroxypropoxy)pyrimidin-2-yl]-2-methylpyrimidin-4 (3H)-one] |
| 5 | CCCCc1nc(C)n(-c2ncc(OCCS(C)(=O)=O)cn2)c(=O)c1Cc1ccc(-c2ccccc2-c2nnn[nH]2)cc1 [Example 27, 5-{[2′-(1H-tetrazol-5-yl)biphenyl-4-yl]methyl}-6-butyl-2-methyl-3-{5-[2-(methylsulfonyl)ethoxy]pyrimidin-2-yl}pyrimidin-4 (3H)-one] |
| 7.7 | CCCCc1nc(C)n(-c2ncc(OC3CCC(=O)CC3)cn2)c(=O)c1Cc1ccc(-c2ccccc2-c2nnn[nH]2)cc1 [Example 29, 5-{[2′-(1H-tetrazol-5-yl)biphenyl-4-yl]methyl}-6-butyl-2-methyl-3-[5-(4-oxocyclohexyloxy)pyrimidin-2-yl]pyrimidin-4 (3H)-one] |
| 25.2 | CCCCc1nc(C)n(-c2ncc(OCC(=O)OCC)cn2)c(=O)c1Cc1ccc(-c2ccccc2-c2nnn[nH]2)cc1 [Example 37] |
| 6.5 | CCCCc1nc(C)n(-c2ncc(OCC(=O)O)cn2)c(=O)c1Cc1ccc(-c2ccccc2-c2nnn[nH]2)cc1 [Example 38, 2-{2-{5-{[2′-(1H-tetrazol-5-yl)biphenyl-4-yl]methyl}-4-butyl-2-methyl-6-oxopyrimidin-1(6H)-yl}pyrimidin-5-yloxy}acetic acid] |
| 1 | CCCCc1nc(C)n(-c2ncc(OCC(N)=O)cn2)c(=O)c1Cc1ccc(-c2ccccc2-c2nnn[nH]2)cc1 [Example 39, 2-{2-{5-{[2′-(1H-tetrazol-5-yl)biphenyl-4-yl]methyl}-4-butyl-2-methyl-6-oxopyrimidin-1(6H)-yl}pyrimidin-5-yloxy}acetamide] |
| 5.9 | CCCCc1nc(C)n(-c2ncc(OCC(=O)NCC)cn2)c(=O)c1Cc1ccc(-c2ccccc2-c2nnn[nH]2)cc1 [Example 40, 2-{2-{5-{[2′-(1H-tetrazol-5-yl)biphenyl-4-yl]methyl}-4-butyl-2-methyl-6-oxopyrimidin-1(6H)-yl}pyrimidin-5-yloxy}-N-ethylacetamide] |
| 8.7 | CCCCc1nc(C)n(-c2ncc(OCC(=O)N(CC)CC)cn2)c(=O)c1Cc1ccc(-c2ccccc2-c2nnn[nH]2)cc1 [Example 41, 2-{2-{5-{[2′-(1H-tetrazol-5-yl)biphenyl-4-yl]methyl}-4-butyl-2-methyl-6-oxopyrimidin-1(6H)-yl}pyrimidin-5-yloxy}-N,N-diethylacetamide] |
